According to PubChem BioAssay (NCI):
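48-hour exposure; five concentrations; linearly interpolated endpoints. TGI denotes the concentration required for complete inhibition of growth.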

What was measured:
Assay in all cases: growth of human tumour cells (NCI), 48 h
XF 498 CNS = system: XF 498 CNS
HT29 colon = system: HT29 colon
LOX IMVI melanoma = system: LOX IMVI melanoma
ACHN renal = system: ACHN renal
SK-MEL-28 melanoma = system: SK-MEL-28 melanoma
NCI-H23 lung = system: NCI-H23 lung
SK-OV-3 ovarian = system: SK-OV-3 ovarian
CCRF-CEM leukemia = system: CCRF-CEM leukemia
SNB-75 CNS = system: SNB-75 CNS
NCI-H226 lung = system: NCI-H226 lung
M19-MEL melanoma = system: M19-MEL melanoma
M14 melanoma = system: M14 melanoma
HL-60(TB) leukemia = system: HL-60(TB) leukemia
SF-295 CNS = system: SF-295 CNS
K-562 leukemia = system: K-562 leukemia
SF-539 CNS = system: SF-539 CNS
RPMI-8226 leukemia = system: RPMI-8226 leukemia
OVCAR-8 ovarian = system: OVCAR-8 ovarian
HCC-2998 colon = system: HCC-2998 colon
A498 renal = system: A498 renal
EKVX NSCLC = system: EKVX NSCLC
DMS 273 small cell lung = system: DMS 273 small cell lung
NCI-H460 lung = system: NCI-H460 lung
OVCAR-4 ovarian = system: OVCAR-4 ovarian
UACC-62 melanoma = system: UACC-62 melanoma
DMS 114 small cell lung = system: DMS 114 small cell lung
SN12C renal = system: SN12C renal
IGROV1 ovarian = system: IGROV1 ovarian
SF-268 CNS = system: SF-268 CNS
UO-31 renal = system: UO-31 renal
COLO 205 colon = system: COLO 205 colon
HOP-92 NSCLC = system: HOP-92 NSCLC
SR leukemia = system: SR leukemia
A549 NSCLC = system: A549 NSCLC
MOLT-4 leukemia = system: MOLT-4 leukemia
SNB-19 CNS = system: SNB-19 CNS
SNB-78 CNS = system: SNB-78 CNS
OVCAR-3 ovarian = system: OVCAR-3 ovarian
TK-10 renal = system: TK-10 renal
CAKI-1 renal = system: CAKI-1 renal
KM12 colon = system: KM12 colon
HCT-116 colon = system: HCT-116 colon
SK-MEL-2 melanoma = system: SK-MEL-2 melanoma
SK-MEL-5 melanoma = system: SK-MEL-5 melanoma
SW-620 colon = system: SW-620 colon
MALME-3M melanoma = system: MALME-3M melanoma
KM20L2 colon = system: KM20L2 colon
HOP-62 NSCLC = system: HOP-62 NSCLC
HCT-15 colon = system: HCT-15 colon
NCI-H522 lung = system: NCI-H522 lung
DLD-1 colon = system: DLD-1 colon
OVCAR-5 ovarian = system: OVCAR-5 ovarian
LXFL 529 NSCLC = system: LXFL 529 NSCLC
UACC-257 melanoma = system: UACC-257 melanoma
U251 CNS = system: U251 CNS
786-0 renal = system: 786-0 renal
RXF-631 renal = system: RXF-631 renal
HOP-18 NSCLC = system: HOP-18 NSCLC

Measured: TGI

COC(=O)[C@H](C)[C@H]1CC[C@@](C)([C@H]2CC3C(C)(C)[C@H]4CCC(C)=C[C@H]4C[C@@]3(C)O2)OO1 (stereo partly drawn)
17.8 µM: SK-MEL-5 melanoma
28.8 µM: M19-MEL melanoma
24.1 µM: A498 renal
23.8 µM: COLO 205 colon
28.2 µM: SNB-19 CNS
27.6 µM: EKVX NSCLC
3.32 µM: NCI-H522 lung
14.2 µM: DMS 114 small cell lung
27 µM: SW-620 colon
18.7 µM: HCC-2998 colon
12.4 µM: HOP-92 NSCLC
31.4 µM: SK-MEL-2 melanoma
25.8 µM: M14 melanoma
23.4 µM: ACHN renal
27.7 µM: OVCAR-3 ovarian
22.3 µM: HCT-116 colon
24 µM: SN12C renal
16.3 µM: CCRF-CEM leukemia
30.1 µM: OVCAR-4 ovarian
23.2 µM: A549 NSCLC
19.2 µM: UO-31 renal
11.1 µM: IGROV1 ovarian
27.2 µM: HT29 colon
3.5 µM: LOX IMVI melanoma
28.9 µM: NCI-H226 lung | SNB-78 CNS | TK-10 renal
18.4 µM: RPMI-8226 leukemia
20.2 µM: 786-0 renal
35.6 µM: UACC-62 melanoma
31 µM: SK-MEL-28 melanoma
26.2 µM: OVCAR-8 ovarian | OVCAR-5 ovarian
4.62 µM: NCI-H460 lung
18.1 µM: SNB-75 CNS
28.4 µM: SF-295 CNS | SF-539 CNS
28.3 µM: MALME-3M melanoma
21.8 µM: XF 498 CNS
25.7 µM: KM12 colon
23.6 µM: NCI-H23 lung
25.3 µM: MOLT-4 leukemia
27.5 µM: KM20L2 colon | UACC-257 melanoma
26.1 µM: DMS 273 small cell lung | U251 CNS
37.1 µM: HOP-62 NSCLC
24.2 µM: K-562 leukemia | HCT-15 colon
5.57 µM: HL-60(TB) leukemia
56.6 µM: SK-OV-3 ovarian
30.5 µM: SR leukemia
25.9 µM: SF-268 CNS | DLD-1 colon
7.79 µM: LXFL 529 NSCLC
18.2 µM: CAKI-1 renal

CC1(c2ccccc2)CC12C(=O)NC(=O)NC2=O (stereo not drawn)
> 100 µM: XF 498 CNS | HT29 colon | LOX IMVI melanoma | ACHN renal | SK-MEL-28 melanoma | NCI-H23 lung | SK-OV-3 ovarian | CCRF-CEM leukemia | NCI-H226 lung | M19-MEL melanoma | M14 melanoma | HL-60(TB) leukemia | SF-295 CNS | K-562 leukemia | SF-539 CNS | RPMI-8226 leukemia | OVCAR-8 ovarian | HCC-2998 colon | EKVX NSCLC | DMS 273 small cell lung | OVCAR-4 ovarian | UACC-62 melanoma | DMS 114 small cell lung | SN12C renal | IGROV1 ovarian | SF-268 CNS | UO-31 renal | COLO 205 colon | HOP-92 NSCLC | SR leukemia | A549 NSCLC | MOLT-4 leukemia | SNB-19 CNS | SNB-78 CNS | OVCAR-3 ovarian | TK-10 renal | CAKI-1 renal | KM12 colon | HCT-116 colon | SK-MEL-2 melanoma | SK-MEL-5 melanoma | SW-620 colon | MALME-3M melanoma | KM20L2 colon | HOP-62 NSCLC | HCT-15 colon | NCI-H522 lung | DLD-1 colon | OVCAR-5 ovarian | LXFL 529 NSCLC | UACC-257 melanoma | U251 CNS | 786-0 renal

CN(OC(=O)CC(=O)c1ccccc1)C(=O)Cc1ccccc1
> 100 µM: HT29 colon | LOX IMVI melanoma | ACHN renal | NCI-H23 lung | SK-OV-3 ovarian | CCRF-CEM leukemia | NCI-H226 lung | RXF-631 renal | M19-MEL melanoma | M14 melanoma | HL-60(TB) leukemia | SF-295 CNS | SF-539 CNS | RPMI-8226 leukemia | OVCAR-8 ovarian | A498 renal | EKVX NSCLC | NCI-H460 lung | OVCAR-4 ovarian | UACC-62 melanoma | DMS 114 small cell lung | SN12C renal | IGROV1 ovarian | SF-268 CNS | UO-31 renal | COLO 205 colon | SR leukemia | A549 NSCLC | SNB-19 CNS | SNB-78 CNS | OVCAR-3 ovarian | TK-10 renal | CAKI-1 renal | KM12 colon | HCT-116 colon | SK-MEL-2 melanoma | SK-MEL-5 melanoma | SW-620 colon | MALME-3M melanoma | KM20L2 colon | HOP-62 NSCLC | HCT-15 colon | NCI-H522 lung | DLD-1 colon | OVCAR-5 ovarian | LXFL 529 NSCLC | UACC-257 melanoma | U251 CNS | 786-0 renal

CC(=O)CC(=O)CCCC(=O)Nc1ccc(Cl)cc1Cl
> 100 µM: XF 498 CNS | HT29 colon | LOX IMVI melanoma | ACHN renal | SK-MEL-28 melanoma | NCI-H23 lung | SK-OV-3 ovarian | SNB-75 CNS | NCI-H226 lung | RXF-631 renal | M14 melanoma | HL-60(TB) leukemia | SF-295 CNS | K-562 leukemia | SF-539 CNS | RPMI-8226 leukemia | OVCAR-8 ovarian | HCC-2998 colon | DMS 273 small cell lung | NCI-H460 lung | OVCAR-4 ovarian | UACC-62 melanoma | SN12C renal | HOP-18 NSCLC | IGROV1 ovarian | SF-268 CNS | UO-31 renal | COLO 205 colon | HOP-92 NSCLC | SR leukemia | A549 NSCLC | MOLT-4 leukemia | SNB-19 CNS | OVCAR-3 ovarian | TK-10 renal | CAKI-1 renal | KM12 colon | HCT-116 colon | SK-MEL-2 melanoma | SW-620 colon | MALME-3M melanoma | KM20L2 colon | HOP-62 NSCLC | HCT-15 colon | NCI-H522 lung | DLD-1 colon | OVCAR-5 ovarian | LXFL 529 NSCLC | UACC-257 melanoma | 786-0 renal
